Test results reported in US20070049593A1 (priority 2004, published 2007).
Counter-ions that a name gives are not always drawn.

Molecular target: T1, HCV polymerase (Hepatitis C virus genotype 1b, UniProt P26663)
T1 construct: a region encoding NS5B (J Virol 1991 March, 65(3), 1105-13, 544 amino acids after deletion of 47 amino acids on the C-terminal); 6xHis (C); made in house; host or cells: Escherichia coli
Experiment: biochemical
Parameters: species or system HCV BK strain
Procedure, shortened: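 Recombinant HCV BK-strain NS5B (C-terminal 47 aa deleted, His6-tagged, E. coli), 0.5 μg/ml, run with 5 μg/ml in vitro-transcribed RNA template (polyU/3′X), ATP/GTP/CTP 50 μM, UTP 2 μM plus [3H]UTP, pH 7.5, 25° C, 90 min. TCA-precipitated RNA counted by scintillation; IC50 from activity with vs without compound.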

T1 sequence (P26663 2420-2963): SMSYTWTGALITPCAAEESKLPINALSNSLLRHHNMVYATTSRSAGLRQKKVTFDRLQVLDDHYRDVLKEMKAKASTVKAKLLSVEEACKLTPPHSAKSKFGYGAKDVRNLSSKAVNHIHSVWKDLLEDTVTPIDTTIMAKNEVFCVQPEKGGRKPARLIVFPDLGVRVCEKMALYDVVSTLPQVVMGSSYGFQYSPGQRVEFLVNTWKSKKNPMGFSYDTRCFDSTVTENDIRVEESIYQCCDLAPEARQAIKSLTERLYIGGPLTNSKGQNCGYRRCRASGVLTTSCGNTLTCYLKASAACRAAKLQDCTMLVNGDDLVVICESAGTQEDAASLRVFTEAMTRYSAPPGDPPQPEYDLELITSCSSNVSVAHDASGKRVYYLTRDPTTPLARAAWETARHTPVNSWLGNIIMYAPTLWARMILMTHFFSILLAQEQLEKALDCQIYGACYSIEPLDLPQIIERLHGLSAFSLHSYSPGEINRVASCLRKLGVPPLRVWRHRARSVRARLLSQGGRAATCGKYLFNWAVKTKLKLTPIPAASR

Structure (SMILES)	IC50 [nM]
CC(=O)N1CCC(CN2CCn3c(c(C4CCCCC4)c4ccc(C(=O)O)cc43)-c3ccccc32)CC1 [Example 1-118, 5-(1-acetylpiperidin-4-ylmethyl)-13-cyclohexyl-6,7-dihydro-5H-benzo[5,6][1,4]diazepino[7,1-a]indole-10-carboxylic acid monohydrochloride]	< 100
O=C(O)c1ccc2c(C3CCCCC3)c3n(c2c1)CCN(CCN1CCCCCC1)c1cc(Cl)ccc1-3 [Example 1-217, 5-[2-(azepan-1-yl)ethyl]-3-chloro-13-cyclohexyl-6,7-dihydro-5H-benzo[5,6][1,4]diazepino[7,1-a]indole-10-carboxylic acid dihydrochloride]	< 100
COc1ccc2c(c1)OCCn1c-2c(C2CCCCC2)c2ccc(C(=O)NC(C)(C)c3ncc(-c4ccc(/C=C/C(=O)O)cc4)[nH]3)cc21 [Example 2-548, (E)-3-[4-(2-{1-[(12-cyclohexyl-3-methoxy-6,7-dihydro-5-oxa-7a-azadibenzo[a,e]azulene-9-carbonyl)amino]-1-methylethyl}-3H-imidazol-4-yl)phenyl]acrylic acid]	< 100
CCN1CCN(C(=O)CN2CCn3c(c(C4CCCCC4)c4ccc(C(=O)O)cc43)-c3ccc(Cl)cc32)CC1 [Example 1-76, 3-chloro-13-cyclohexyl-5-[2-(4-ethylpiperazin-1-yl)-2-oxoethyl]-6,7-dihydro-5H-benzo[5,6][1,4]diazepino[7,1-a]indole-10-carboxylic acid dihydrochloride]	< 100
Cc1ccc2c(c1)N(CCN1CCC(CO)CC1)CCn1c-2c(C2CCCCC2)c2ccc(C(=O)O)cc21 [Example 1-443, 13-cyclohexyl-5-[2-(4-hydroxymethylpiperidin-1-yl)ethyl]-3-methyl-6,7-dihydro-5H-benzo[5,6][1,4]diazepino[7,1-a]indole-10-carboxylic acid dihydrochloride]	< 100
COCCNC(=O)[C@H](Cc1ccc(O)cc1)NC(=O)c1ccc2c(C3CCCCC3)c3n(c2c1)CCOc1cc(OC)ccc1-3 [Example 2-296, N—[(S)-2-(4-hydroxyphenyl)-1-(2-methoxyethylcarbamoyl)ethyl]-12-cyclohexyl-3-methoxy-6,7-dihydro-5-oxa-7a-azadibenzo[a,e]azulene-9-carboxamide]	< 100
COc1ccc2c(c1)OCCn1c-2c(C2CCCCC2)c2ccc(C(=O)N[C@@H](Cc3ccc(O)cc3)C3=NCCN3)cc21 [Example 2-450, N—[(S)-1-(4,5-dihydro-1H-imidazol-2-yl)-2-(4-hydroxyphenyl)ethyl]-12-cyclohexyl-3-methoxy-6,7-dihydro-5-oxa-7a-azadibenzo[a,e]azulene-9-carboxamide]	< 100
O=C(O)c1ccc2c(C3CCCCC3)c3n(c2c1)CCN(CCCN1CCCCC1)c1cc(Cl)ccc1-3 [Example 1-242, 3-chloro-13-cyclohexyl-5-[3-(piperidin-1-yl)propyl]-6,7-dihydro-5H-benzo[5,6][1,4]diazepino[7,1-a]indole-10-carboxylic acid dihydrochloride]	< 100
Cc1cc(COc2ccc3c(c2)N(CCN2CCCCC2)CCn2c-3c(C3CCCCC3)c3ccc(C(=O)O)cc32)no1 [Example 1-363, 13-cyclohexyl-3-(5-methylisoxazol-3-ylmethoxy)-5-[2-(piperidin-1-yl)ethyl]-6,7-dihydro-5H-benzo[5,6][1,4]diazepino[7,1-a]indole-10-carboxylic acid dihydrochloride]	< 100
O=C(CN1CCOCC1)Nc1ccc(N2CCOCC2)c(COc2ccc3c(c2)OCCn2c-3c(C3CCCCC3)c3ccc(C(=O)O)cc32)c1 [Example 2-21, 12-cyclohexyl-3-{2-(morpholin-4-yl)-5-[2-(morpholin-4-yl)acetylamino]benzyloxy}-6,7-dihydro-5-oxa-7a-azadibenzo[a,e]azulene-9-carboxylic acid dihydrochloride]	< 100
O=C(O)c1ccc2c(C3CCCCC3)c3n(c2c1)CCNc1ccccc1-3 [Example 1-3, 13-cyclohexyl-6,7-dihydro-5H-benzo[5,6][1,4]diazepino[7,1-a]indole-10-carboxylic acid monohydrochloride]	< 100
Cc1ccc2c(c1)N(CCC13CCC(CC1)N3Cc1ccccc1)CCn1c-2c(C2CCCCC2)c2ccc(C(=O)O)cc21 [Example 1-487, 5-[2-(7-benzyl-7-azabicyclo[2.2.1]hept-1-yl)ethyl]-13-cyclohexyl-3-methyl-6,7-dihydro-5H-benzo[5,6][1,4]diazepino[7,1-a]indole-10-carboxylic acid]	< 100
CCN(CCCOC)CCCN1CCn2c(c(C3CCCCC3)c3ccc(C(=O)O)cc32)-c2ccc(Cl)cc21 [Example 1-432, 3-chloro-13-cyclohexyl-5-{3-[N-ethyl-N-(3-methoxypropyl)amino]propyl}-6,7-dihydro-5H-benzo[5,6][1,4]diazepino[7,1-a]indole-10-carboxylic acid dihydrochloride]	< 100
CN1CCCCC1COc1ccc2c(c1)OCCn1c-2c(C2CCCCC2)c2ccc(C(=O)O)cc21 (centres unmarked) [Example 2-45, 12-cyclohexyl-3-(1-methylpiperidin-2-ylmethoxy)-6,7-dihydro-5-oxa-7a-azadibenzo[a,e]azulene-9-carboxylic acid]	< 100
O=C(O)c1ccc2c(c1)c1c(n2C2CCCCC2)-c2ccccc2N(CCN2CCCCC2)CC1 [Example 10-4, 12-cyclohexyl-5-[2-(piperidin-1-yl)ethyl]-5,6,7,12-tetrahydrobenzo[2,3]azepino[4,5-b]indole-9-carboxylic acid]	100 to 1000
CC(C)N1CCCC(CCN2CCn3c(c(C4CCCC4)c4ccc(C(=O)O)cc43)-c3ccc(Cl)cc32)C1 (centres unmarked) [Example 1-414, 3-chloro-13-cyclopentyl-5-[2-(1-isopropylpiperidin-3-yl)ethyl]-6,7-dihydro-5H-benzo[5,6][1,4]diazepino[7,1-a]indole-10-carboxylic acid monohydrochloride]	< 100
CC(C)N1CCCC(CCN2CCn3c(c(C4CCCCC4)c4ccc(C(=O)O)cc43)-c3ccc(Cl)cc32)C1 (centres unmarked) [Example 1-229, 3-chloro-13-cyclohexyl-5-[2-(1-isopropylpiperidin-3-yl)ethyl]-6,7-dihydro-5H-benzo[5,6][1,4]diazepino[7,1-a]indole-10-carboxylic acid dihydrochloride]	< 100
CC(C)(C)OC(=O)N[C@H](COc1ccc2c(c1)OCCn1c-2c(C2CCCCC2)c2ccc(C(=O)O)cc21)Cc1ccccc1 [Example 2-41, 3-((S)-2-tert-butoxycarbonylamino-3-phenylpropoxy)-12-cyclohexyl-6,7-dihydro-5-oxa-7a-azadibenzo[a,e]azulene-9-carboxylic acid]	< 100
CCc1ccc2c(c1)N(CCCN(CC)CCCOC)CCn1c-2c(C2CCCCC2)c2ccc(C(=O)O)cc21 [Example 1-513, 13-cyclohexyl-5-{3-[N-ethyl-N-(3-methoxypropyl)amino]propyl}-3-ethyl-6,7-dihydro-5H-benzo[5,6][1,4]diazepino[7,1-a]indole-10-carboxylic acid dihydrochloride]	< 100
CCN(CC)CCCN1CCn2c(c(C3CCCCC3)c3ccc(C(=O)O)cc32)-c2ccc(C)cc21 [Example 1-378, 13-cyclohexyl-5-(3-diethylaminopropyl)-3-methyl-6,7-dihydro-5H-benzo[5,6][1,4]diazepino[7,1-a]indole-10-carboxylic acid dihydrochloride]	< 100
COCC1CCCN(CCCN2CCn3c(c(C4CCCCC4)c4ccc(C(=O)O)cc43)-c3ccc(Cl)cc32)C1 (centres unmarked) [Example 1-352, 3-chloro-13-cyclohexyl-5-[3-(3-methoxymethylpiperidin-1-yl)propyl]-6,7-dihydro-5H-benzo[5,6][1,4]diazepino[7,1-a]indole-10-carboxylic acid monohydrochloride]	< 100
COc1ccc2c(c1)OCCn1c-2c(C2CCCCC2)c2ccc(C(=O)NC(C)(C)c3nc4cc(C(=O)O)ccc4c(=O)[nH]3)cc21 [Example 2-403, 2-{1-[(12-cyclohexyl-3-methoxy-6,7-dihydro-5-oxa-7a-azadibenzo[a,e]azulene-9-carbonyl)amino]-1-methylethyl}-4-oxo-3,4-dihydroquinazoline-7-carboxylic acid]	< 100
CC(C)(NC(=O)c1ccc2c(C3CCCCC3)c3n(c2c1)CCOc1ccccc1-3)C(=O)N1CCC(O)CC1 [Example 2-190, N-[2-(4-hydroxypiperidin-1-yl)-1,1-dimethyl-2-oxoethyl]-12-cyclohexyl-6,7-dihydro-5-oxa-7a-azadibenzo[a,e]azulene-9-carboxamide]	< 100
COc1ccc2c(c1)OCCn1c-2c(C2CCCCC2)c2ccc(C(=O)NC3(C(=O)Nc4ccc(S(=O)(=O)O)cc4)CCC3)cc21 [Example 2-523, 4-({1-[(12-cyclohexyl-3-methoxy-6,7-dihydro-5-oxa-7a-azadibenzo[a,e]azulene-9-carbonyl)amino]cyclobutanecarbonyl}amino)benzenesulfonic acid]	< 100
O=C(O)c1ccc2c(C3CCCCC3)c3n(c2c1)CCN(CC(=O)N1CCOCC1)c1cc(Cl)ccc1-3 [Example 1-60, 3-chloro-13-cyclohexyl-5-[2-(morpholin-4-yl)-2-oxoethyl]-6,7-dihydro-5H-benzo[5,6][1,4]diazepino[7,1-a]indole-10-carboxylic acid monohydrochloride]	< 100
COC(=O)[C@H](Cc1ccc(OCC(=O)OC(C)(C)C)cc1)NC(=O)c1ccc2c(C3CCCCC3)c3n(c2c1)CCOc1cc(OC)ccc1-3 [Example 2-377, methyl (S)-3-(4-tert-butoxycarbonylmethoxyphenyl)-2-[(12-cyclohexyl-3-methoxy-6,7-dihydro-5-oxa-7a-azadibenzo[a,e]azulene-9-carbonyl)amino]propionate]	< 100
